{"source": "patent US10376520B2", "about": "“Methods for the treatment of cardiovascular disorders” (Galapagos NV, priority 2015, dated 2019)", "tested_on": "Subjects With Active Crohn's Disease", "experiment": "LDL determination, Study 5 (Crohn's disease)", "format": "in vivo, human", "conditions": "for [LDL] Mean CFB - 10 weeks results / [LDL] Median CFB - 10 weeks results / [LDL] Mean CFB: 200 mg q.d.; for [LDL] Mean CFB: Study 5 10 weeks results", "excerpt": "Double-Blind, Randomized, Placebo-Controlled, Multi-Centre Study to Investigate the Efficacy and Safety of Compound 1 in Subjects With Active Crohn's Disease With Evidence of Mucosal Ulceration.\nThis is a double-blind, randomized, placebo-controlled, multi-centre Phase 2 study to investigate the efficacy and safety of Compound 1 administered once daily for the treatment of active CD with evidence of mucosal ulceration. The pharmacokinetics (including a PK substudy) and pharmacodynamics of Compound 1 and metabolite in CD will also be characterised.\nA total of 180 eligible subjects will be randomized to receive Compound 1 or placebo in addition to their stable background treatment (eg, corticosteroids, aminosalicylates, or CD-related antibiotics). The study will consist of 2 parts, with total treatment duration of 20 weeks. Randomization in Part 1 will be stratified according the subject's previous anti-TNF exposure/response, CRP level at Screening, and oral corticosteroid use at visit Day −1.\nAfter the first 10 weeks of treatment in Part 1, patients will be re-randomized for Part 2 as shown in the diagram below and will be stratified according to the subject's clinical response, previous anti-TNF exposure/response, and oral corticosteroid use at visit Day −1.\nThe following assays were conducted at Eurofins Global Central Laboratory, Bergschot 71, 4817 PA Breda, The Netherlands, and at Quest Diagnostics, Clinical Trials, Quest House, 125-135 Staines Road, Hounslow, Middlesex, TW3 3JB, United Kingdom. The assays for Study 5 were performed at BARC Europe, 3B, Industrie Park, Zwijnaarde, B-9052 Ghent, Belgium.\nThe determination of [LDL]-cholesterol is made using an automated method taking advantage of the selective micellary solubilization of [LDL]-cholesterol by a nonionic detergent and the interaction of a sugar compound and lipoproteins (VLDL and chylomicrons).\nWhen a detergent is included in the enzymatic method for cholesterol determination (cholesterol esterase, cholesterol oxidase coupling reaction), the relative reactivities of cholesterol in the lipoprotein fractions increase in this order: [HDL]<chylomicrons <VLDL <[LDL]. In the presence of Mg^2+, a sugar compound markedly reduces the enzymatic reaction of the cholesterol measurement in VLDL and chylomicrons. The combination of a sugar compound with detergent enables the selective determination of [LDL]-cholesterol in serum. (Friedewald et al., 1972; Rifai et al., 1992)\nHomogeneous enzymatic colorimetric assay.\nIn the presence of peroxidase, the hydrogen peroxide generated reacts with 4-aminoantipyrine and Sodium N-(2-hydroxy-3-sulfopropyl)-3,5-dimethoxyaniline (HSDA) to form a purple-blue dye.\nThe color intensity of this dye is directly proportional to the cholesterol concentration and is measured photometrically.\nHuman serum and plasma samples [LDL] determination was done on a Roche/Hitachi Cobas c 701/702 system which automatically calculate the analyte concentration of each sample. Samples containing precipitates are centrifuged before performing the assay.", "key": {"[1]": {"conditions": "200 mg q.d. week 0 to 10, to 100 mg q.d. week 10 to 20, week 16"}, "[2]": {"conditions": "200 mg q.d. week 0 to 10, to 100 mg q.d. week 10 to 20, week 20"}, "[3]": {"conditions": "200 mg q.d. week 0 to 10, to placebo week 10 to 20, week 2"}, "[4]": {"conditions": "200 mg q.d. week 0 to 10, to placebo week 10 to 20, week 4"}, "[5]": {"conditions": "200 mg q.d. week 0 to 10, to placebo week 10 to 20, week 6"}, "[6]": {"conditions": "200 mg q.d. week 0 to 10, to placebo week 10 to 20, week 10"}, "[7]": {"conditions": "200 mg q.d. week 0 to 10, to placebo week 10 to 20, week 12"}, "[8]": {"conditions": "200 mg q.d. week 0 to 10, to placebo week 10 to 20, week 16"}, "[9]": {"conditions": "200 mg q.d. week 0 to 10, to placebo week 10 to 20, week 20"}, "[10]": {"conditions": "continued 200 mg q.d. (N = 77), week 2"}, "[11]": {"conditions": "continued 200 mg q.d. (N = 77), week 4"}, "[12]": {"conditions": "continued 200 mg q.d. (N = 77), week 6"}, "[13]": {"conditions": "continued 200 mg q.d. (N = 77), week 10"}, "[14]": {"conditions": "continued 200 mg q.d. (N = 77), week 12"}, "[15]": {"conditions": "continued 200 mg q.d. (N = 77), week 16"}, "[16]": {"conditions": "continued 200 mg q.d. (N = 77), week 20"}, "[17]": {"conditions": "placebo week 0 to 10, then 100 mg q.d. (N = 22), week 12"}, "[18]": {"conditions": "placebo week 0 to 10, then 100 mg q.d. (N = 22), week 16"}, "[19]": {"conditions": "placebo week 0 to 10, then 100 mg q.d. (N = 22), week 20"}, "[20]": {"conditions": "placebo week 0 to 10, to 100 mg q.d. week 10 to 20, week 12"}, "[21]": {"conditions": "placebo week 0 to 10, to 100 mg q.d. week 10 to 20, week 16"}, "[22]": {"conditions": "placebo week 0 to 10, to 100 mg q.d. week 10 to 20, week 20"}}}
{"smiles": "O=C(Nc1nc2cccc(-c3ccc(CN4CCS(=O)(=O)CC4)cc3)n2n1)C1CC1", "note": "[Compound 1, cyclopropanecarboxylic acid {5-[4-(1,1-dioxo-thiomorpholin-4-ylmethyl)-phenyl]-[1,2,4]triazolo[1,5-a]pyridin-2yl}-amide]", "values": [{"measurement": "[LDL] Mean CFB - 20 weeks results", "setting": "[1]", "value": 2.18, "unit": "%"}, {"measurement": "[LDL] Median CFB - 20 weeks results", "setting": "[1]", "value": "−1.36", "unit": "%"}, {"measurement": "[LDL] Mean CFB - 20 weeks results", "setting": "[2]", "value": 2.73, "unit": "%"}, {"measurement": "[LDL] Median CFB - 20 weeks results", "setting": "[2]", "value": 1.65, "unit": "%"}, {"measurement": "[LDL] Mean CFB - 20 weeks results", "setting": "[3]", "value": 2.69, "unit": "%"}, {"measurement": "[LDL] Median CFB - 20 weeks results", "setting": "[3]", "value": 0.71, "unit": "%"}, {"measurement": "[LDL] Mean CFB - 20 weeks results", "setting": "[4]", "value": 1.85, "unit": "%"}, {"measurement": "[LDL] Median CFB - 20 weeks results", "setting": "[4]", "value": 2.44, "unit": "%"}, {"measurement": "[LDL] Mean CFB - 20 weeks results", "setting": "[5]", "value": 3.72, "unit": "%"}, {"measurement": "[LDL] Median CFB - 20 weeks results", "setting": "[5]", "value": 3.51, "unit": "%"}, {"measurement": "[LDL] Mean CFB - 20 weeks results", "setting": "[6]", "value": 4.43, "unit": "%"}, {"measurement": "[LDL] Median CFB - 20 weeks results", "setting": "[6]", "value": 1.84, "unit": "%"}, {"measurement": "[LDL] Mean CFB - 20 weeks results", "setting": "[7]", "value": 4.55, "unit": "%"}, {"measurement": "[LDL] Median CFB - 20 weeks results", "setting": "[7]", "value": 6.33, "unit": "%"}, {"measurement": "[LDL] Mean CFB - 20 weeks results", "setting": "[8]", "value": 10.32, "unit": "%"}, {"measurement": "[LDL] Median CFB - 20 weeks results", "setting": "[8]", "value": 6.34, "unit": "%"}, {"measurement": "[LDL] Mean CFB - 20 weeks results", "setting": "[9]", "value": 6.12, "unit": "%"}, {"measurement": "[LDL] Median CFB - 20 weeks results", "setting": "[9]", "value": 5.24, "unit": "%"}, {"measurement": "[LDL] Mean CFB - 10 weeks results", "setting": "week 2", "value": 2.833, "unit": "%"}, {"measurement": "[LDL] Median CFB - 10 weeks results", "setting": "week 2", "value": "−1.469", "unit": "%"}, {"measurement": "[LDL] Mean CFB - 10 weeks results", "setting": "week 4", "value": 1.997, "unit": "%"}, {"measurement": "[LDL] Median CFB - 10 weeks results", "setting": "week 4", "value": "−1.986", "unit": "%"}, {"measurement": "[LDL] Mean CFB - 10 weeks results", "setting": "week 6", "value": 1.743, "unit": "%"}, {"measurement": "[LDL] Median CFB - 10 weeks results", "setting": "week 6", "value": 0.992, "unit": "%"}, {"measurement": "[LDL] Mean CFB - 10 weeks results", "setting": "week 10", "value": 10.126, "unit": "%"}, {"measurement": "[LDL] Median CFB - 10 weeks results", "setting": "week 10", "value": 6.299, "unit": "%"}, {"measurement": "[LDL] Mean CFB", "setting": "week 2", "value": 0.025, "unit": "mmol/L"}, {"measurement": "[LDL] Mean CFB", "setting": "week 4", "value": -0.030, "unit": "mmol/L"}, {"measurement": "[LDL] Mean CFB", "setting": "week 6", "value": -0.012, "unit": "mmol/L"}, {"measurement": "[LDL] Mean CFB", "setting": "week 10", "value": 0.150, "unit": "mmol/L"}, {"measurement": "[LDL] Mean CFB - 20 weeks results", "setting": "[10]", "value": 0.04, "unit": "mmol/L"}, {"measurement": "[LDL] Median CFB - 10 weeks results 20 weeks results", "setting": "[10]", "value": -0.05, "unit": "mmol/L"}, {"measurement": "[LDL] Mean CFB - 20 weeks results", "setting": "[11]", "value": -0.05, "unit": "mmol/L"}, {"measurement": "[LDL] Median CFB - 10 weeks results 20 weeks results", "setting": "[11]", "value": -0.05, "unit": "mmol/L"}, {"measurement": "[LDL] Mean CFB - 20 weeks results", "setting": "[12]", "value": -0.05, "unit": "mmol/L"}, {"measurement": "[LDL] Median CFB - 10 weeks results 20 weeks results", "setting": "[12]", "value": -0.02, "unit": "mmol/L"}, {"measurement": "[LDL] Mean CFB - 20 weeks results", "setting": "[13]", "value": 0.20, "unit": "mmol/L"}, {"measurement": "[LDL] Median CFB - 10 weeks results 20 weeks results", "setting": "[13]", "value": 0.18, "unit": "mmol/L"}, {"measurement": "[LDL] Mean CFB - 20 weeks results", "setting": "[14]", "value": 0.14, "unit": "mmol/L"}, {"measurement": "[LDL] Median CFB - 10 weeks results 20 weeks results", "setting": "[14]", "value": 0.15, "unit": "mmol/L"}, {"measurement": "[LDL] Mean CFB - 20 weeks results", "setting": "[15]", "value": 0.21, "unit": "mmol/L"}, {"measurement": "[LDL] Median CFB - 10 weeks results 20 weeks results", "setting": "[15]", "value": 0.19, "unit": "mmol/L"}, {"measurement": "[LDL] Mean CFB - 20 weeks results", "setting": "[16]", "value": 0.22, "unit": "mmol/L"}, {"measurement": "[LDL] Median CFB - 10 weeks results 20 weeks results", "setting": "[16]", "value": 0.18, "unit": "mmol/L"}, {"measurement": "[LDL] Mean CFB - 20 weeks results", "setting": "[17]", "value": 0.09, "unit": "mmol/L"}, {"measurement": "[LDL] Median CFB - 10 weeks results 20 weeks results", "setting": "[17]", "value": 0.07, "unit": "mmol/L"}, {"measurement": "[LDL] Mean CFB - 20 weeks results", "setting": "[18]", "value": 0.05, "unit": "mmol/L"}, {"measurement": "[LDL] Median CFB - 10 weeks results 20 weeks results", "setting": "[18]", "value": -0.06, "unit": "mmol/L"}, {"measurement": "[LDL] Mean CFB - 20 weeks results", "setting": "[19]", "value": 0.06, "unit": "mmol/L"}, {"measurement": "[LDL] Median CFB - 10 weeks results 20 weeks results", "setting": "[19]", "value": 0.03, "unit": "mmol/L"}, {"measurement": "[LDL] Mean CFB - 20 weeks results", "setting": "[20]", "value": 4.07, "unit": "%"}, {"measurement": "[LDL] Median CFB - 20 weeks results", "setting": "[20]", "value": 2.14, "unit": "%"}, {"measurement": "[LDL] Mean CFB - 20 weeks results", "setting": "[21]", "value": 5.28, "unit": "%"}, {"measurement": "[LDL] Median CFB - 20 weeks results", "setting": "[21]", "value": "−2.00", "unit": "%"}, {"measurement": "[LDL] Mean CFB - 20 weeks results", "setting": "[22]", "value": 7.29, "unit": "%"}, {"measurement": "[LDL] Median CFB - 20 weeks results", "setting": "[22]", "value": 1.90, "unit": "%"}]}
